Measured values from article PMC12595434, “Development of retinoid nuclear receptor pathway antagonists through targeting aldehyde dehydrogenase 1A3” (iScience, 2025).

What was measured:
5HT1B = 5HT1B (Homo sapiens, UniProt P28222); assay: Off-target profiling panel; type: binding; conditions: read-out: Inhibition by MBE1 at 10 μM (%)
ALDH1A3 [1] = target: T1, ALDH1A3 (Homo sapiens, UniProt P47895); assay: Thermal proteome profiling (TPP) in A375 cells; type: cell-based; parameters: endogenous in cells; host or cells: A375 cells; conditions: 100 nM and 1 μM MBE1, A375 cells
T1 sequence (P47895 1-512): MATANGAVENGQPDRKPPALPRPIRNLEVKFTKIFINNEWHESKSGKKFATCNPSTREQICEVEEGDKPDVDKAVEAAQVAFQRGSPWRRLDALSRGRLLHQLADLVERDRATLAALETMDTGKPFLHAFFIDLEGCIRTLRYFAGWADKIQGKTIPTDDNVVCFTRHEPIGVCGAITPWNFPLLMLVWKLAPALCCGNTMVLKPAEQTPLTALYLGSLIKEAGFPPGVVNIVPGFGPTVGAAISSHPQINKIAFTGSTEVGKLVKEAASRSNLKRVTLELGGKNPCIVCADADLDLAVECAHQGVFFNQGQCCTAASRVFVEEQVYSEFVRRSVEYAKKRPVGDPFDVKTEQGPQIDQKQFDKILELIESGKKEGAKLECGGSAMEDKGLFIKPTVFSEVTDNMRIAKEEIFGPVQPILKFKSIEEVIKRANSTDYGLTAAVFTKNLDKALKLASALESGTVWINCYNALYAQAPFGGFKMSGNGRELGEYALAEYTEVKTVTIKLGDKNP

C19orf66 = target: T2, C19orf66 (Homo sapiens, UniProt Q9NUL5); assay: Thermal proteome profiling (TPP) in A375 cells; type: cell-based; conditions: C19orf66, 1 uM
T2 construct: Treated A375 cells were harvested from 10 × 15 cm plates; endogenous in cells; host or cells: A375 melanoma cells
T2 sequence (Q9NUL5 whole entry): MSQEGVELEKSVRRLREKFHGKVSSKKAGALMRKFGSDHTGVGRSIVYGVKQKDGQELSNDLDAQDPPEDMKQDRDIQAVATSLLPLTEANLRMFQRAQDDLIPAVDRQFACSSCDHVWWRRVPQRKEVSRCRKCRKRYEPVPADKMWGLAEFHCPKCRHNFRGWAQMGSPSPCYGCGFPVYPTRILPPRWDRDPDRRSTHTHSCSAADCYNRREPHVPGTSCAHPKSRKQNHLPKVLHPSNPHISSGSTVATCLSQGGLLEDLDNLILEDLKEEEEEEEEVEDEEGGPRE

op-delta = op-delta (Homo sapiens, UniProt P41143); assay: Off-target profiling panel; type: binding; conditions: read-out: Inhibition by MBE1 at 10 μM (%)
5HT3 = 5HT3 (Homo sapiens, UniProt P46098); assay: Off-target profiling panel; type: binding; conditions: read-out: Inhibition by MBE1 at 10 μM (%)
Chain of 5HT3 (P46098 24-478): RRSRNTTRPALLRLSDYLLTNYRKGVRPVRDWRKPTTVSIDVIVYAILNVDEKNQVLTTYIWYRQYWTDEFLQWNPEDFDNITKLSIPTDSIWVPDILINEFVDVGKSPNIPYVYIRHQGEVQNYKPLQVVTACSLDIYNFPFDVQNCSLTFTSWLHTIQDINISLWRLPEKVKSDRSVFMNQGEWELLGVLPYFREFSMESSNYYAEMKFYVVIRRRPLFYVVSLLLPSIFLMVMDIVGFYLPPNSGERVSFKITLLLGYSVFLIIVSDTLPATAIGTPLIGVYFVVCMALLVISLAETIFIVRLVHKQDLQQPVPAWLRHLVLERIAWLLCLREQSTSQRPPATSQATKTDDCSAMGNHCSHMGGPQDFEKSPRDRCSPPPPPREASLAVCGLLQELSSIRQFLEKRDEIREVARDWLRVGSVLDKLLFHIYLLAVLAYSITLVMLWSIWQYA

Eta agonist = Eta agonist (Homo sapiens, UniProt P25101); assay: Off-target profiling panel; type: cell-based; conditions: read-out: Inhibition by MBE1 at 10 μM (%)
Chain of Eta agonist (P25101 21-427): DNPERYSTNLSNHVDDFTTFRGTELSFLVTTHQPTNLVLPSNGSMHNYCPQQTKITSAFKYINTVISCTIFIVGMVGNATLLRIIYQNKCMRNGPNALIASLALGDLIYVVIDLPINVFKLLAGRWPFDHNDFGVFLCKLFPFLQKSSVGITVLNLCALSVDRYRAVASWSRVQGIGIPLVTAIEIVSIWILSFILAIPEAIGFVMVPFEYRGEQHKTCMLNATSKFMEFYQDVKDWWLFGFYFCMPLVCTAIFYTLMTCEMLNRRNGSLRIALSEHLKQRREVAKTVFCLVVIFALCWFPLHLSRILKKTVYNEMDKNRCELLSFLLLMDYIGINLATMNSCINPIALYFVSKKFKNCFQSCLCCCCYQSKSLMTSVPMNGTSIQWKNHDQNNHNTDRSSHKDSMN

COX2 = COX2 (Homo sapiens, UniProt P35354); assay: Off-target profiling panel; type: biochemical; conditions: read-out: Inhibition by MBE1 at 10 μM (%)
Chain of COX2 (P35354 18-604): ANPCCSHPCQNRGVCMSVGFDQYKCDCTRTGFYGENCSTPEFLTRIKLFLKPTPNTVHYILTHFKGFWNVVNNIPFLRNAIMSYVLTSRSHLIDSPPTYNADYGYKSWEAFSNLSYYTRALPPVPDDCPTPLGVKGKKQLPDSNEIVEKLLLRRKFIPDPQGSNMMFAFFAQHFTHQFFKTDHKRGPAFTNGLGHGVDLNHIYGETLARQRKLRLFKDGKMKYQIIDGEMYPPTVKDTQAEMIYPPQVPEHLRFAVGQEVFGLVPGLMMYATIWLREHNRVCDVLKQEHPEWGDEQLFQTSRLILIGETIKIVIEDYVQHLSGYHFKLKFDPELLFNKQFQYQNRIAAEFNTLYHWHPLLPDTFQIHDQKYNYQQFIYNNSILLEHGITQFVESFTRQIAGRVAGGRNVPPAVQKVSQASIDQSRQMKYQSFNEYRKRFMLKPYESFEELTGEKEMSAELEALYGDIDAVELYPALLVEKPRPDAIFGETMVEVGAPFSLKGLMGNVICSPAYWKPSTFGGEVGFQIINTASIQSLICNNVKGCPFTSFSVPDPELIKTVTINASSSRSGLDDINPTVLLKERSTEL

GABAA = assay: Off-target profiling panel
LCK = LCK (Homo sapiens, UniProt P06239); assay: Off-target profiling panel; type: biochemical; conditions: read-out: Inhibition by MBE1 at 10 μM (%)
MAO-A = MAO-A (Homo sapiens, UniProt P21397); assay: Off-target profiling panel; type: biochemical; conditions: read-out: Inhibition by MBE1 at 10 μM (%)
Plasma stability (human) = type: in vitro ADME; conditions: read-out: Plasma stability T1/2 (human)
NMDA = assay: Off-target profiling panel; type: binding; conditions: 10 μM
5HT2B = 5HT2B (Homo sapiens, UniProt P41595); assay: Off-target profiling panel; type: binding; conditions: read-out: Inhibition by MBE1 at 10 μM (%)
Chain of 5HT2B (P41595 whole entry): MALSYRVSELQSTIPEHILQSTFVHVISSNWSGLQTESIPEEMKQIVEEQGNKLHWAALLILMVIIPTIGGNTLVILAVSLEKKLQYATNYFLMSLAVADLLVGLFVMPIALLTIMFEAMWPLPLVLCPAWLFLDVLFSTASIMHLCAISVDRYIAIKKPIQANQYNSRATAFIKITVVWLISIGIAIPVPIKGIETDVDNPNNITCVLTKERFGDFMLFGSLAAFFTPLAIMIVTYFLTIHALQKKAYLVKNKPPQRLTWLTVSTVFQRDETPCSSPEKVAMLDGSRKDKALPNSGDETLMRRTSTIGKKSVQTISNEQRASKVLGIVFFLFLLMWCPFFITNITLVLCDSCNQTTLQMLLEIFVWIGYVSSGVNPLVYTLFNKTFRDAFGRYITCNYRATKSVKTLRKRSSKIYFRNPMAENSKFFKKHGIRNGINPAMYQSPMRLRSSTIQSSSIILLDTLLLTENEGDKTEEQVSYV

V1A = V1A (Homo sapiens, UniProt P37288); assay: Off-target profiling panel; type: binding; conditions: read-out: Inhibition by MBE1 at 10 μM (%)
Chain of V1A (P37288 whole entry): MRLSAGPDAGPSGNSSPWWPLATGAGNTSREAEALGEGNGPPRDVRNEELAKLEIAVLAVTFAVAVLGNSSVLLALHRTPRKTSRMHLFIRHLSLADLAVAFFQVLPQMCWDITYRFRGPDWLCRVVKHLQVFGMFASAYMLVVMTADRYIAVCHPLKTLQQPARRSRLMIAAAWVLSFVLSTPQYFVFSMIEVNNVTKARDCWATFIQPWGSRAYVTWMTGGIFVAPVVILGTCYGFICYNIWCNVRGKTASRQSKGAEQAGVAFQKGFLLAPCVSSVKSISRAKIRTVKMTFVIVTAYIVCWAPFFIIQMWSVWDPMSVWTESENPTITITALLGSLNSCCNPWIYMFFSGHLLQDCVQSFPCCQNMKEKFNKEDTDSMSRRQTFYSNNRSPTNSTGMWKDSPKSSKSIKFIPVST

ALDH1A3 [2] = target: T1, ALDH1A3; assay: Cellular thermal shift assay (CETSA) in A375 cells; type: cell-based; parameters: endogenous in cells; host or cells: A375 cells; conditions: 100 nM, 1h at 37°C
Protocol: CETSA was performed according to protocols described before.[85] Briefly, 6 × 10cm dishes of A375 cells were collected and treated with 100 nM MBE1 or 0.1% DMSO for 1h at 37°C. Afterward, cells were pelleted through centrifugation at 300g for 5 min. Cells were then washed with ice-cold PBS and resuspended in 800 μL of PBS. Cell suspension was aliquoted to 7xPCR tubes with 100 μL each and subjected to thermal denaturation at 46.3, 48.6, 52.2, 56.5, 60.1, 62.5, 64.0°C for 3 min. The resulting sample was snap frozen in liquid nitrogen followed by incubation at room temperature until fully thawed. This procedure was performed twice followed by brief vortexing and mixing to release soluble proteins from the cells. Samples were then transferred to 1.5 mL Eppendorf tubes and centrifuged at 20,000g for 20 min at 4°C, 90 μL of the resulting supernatant was collected into another new 1.5 mL Eppendorf tube and subjected to protein analysis by western blot (WB). NPTN (proteintech #28022-1-AP) and ALDH1A3 (abcam #ab129815) were used to detect target proteins while GelCode Blue Stain Reagent (Thermofisher scientific #24590) was used to stain for total proteins loaded in the WB analysis.

Alpha2A = Alpha2A (Homo sapiens, UniProt P08913); assay: Off-target profiling panel; type: binding; conditions: read-out: Inhibition by MBE1 at 10 μM (%)
Chain of Alpha2A (P08913 whole entry): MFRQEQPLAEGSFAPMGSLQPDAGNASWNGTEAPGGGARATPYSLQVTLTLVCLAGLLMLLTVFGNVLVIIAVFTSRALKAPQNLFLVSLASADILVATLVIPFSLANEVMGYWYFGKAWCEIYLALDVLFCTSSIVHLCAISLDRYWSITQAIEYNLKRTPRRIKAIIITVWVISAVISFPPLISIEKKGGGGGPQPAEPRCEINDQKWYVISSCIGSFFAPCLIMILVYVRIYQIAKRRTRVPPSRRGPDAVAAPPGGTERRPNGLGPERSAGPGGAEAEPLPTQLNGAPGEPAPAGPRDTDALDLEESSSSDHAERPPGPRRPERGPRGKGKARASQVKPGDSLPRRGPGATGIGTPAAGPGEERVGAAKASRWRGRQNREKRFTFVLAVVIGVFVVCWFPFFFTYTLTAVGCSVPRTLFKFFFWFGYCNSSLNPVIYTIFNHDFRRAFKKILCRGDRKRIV

hERG = hERG (Homo sapiens, UniProt Q12809); assay: Off-target profiling panel; type: binding; conditions: read-out: Inhibition by MBE1 at 10 μM (%)
RHPN2 = target: T3, RHPN2 (Homo sapiens, UniProt Q8IUC4); assay: Thermal proteome profiling (TPP) in A375 cells; type: cell-based; conditions: RHPN2, 100 nM
T3 construct: Treated A375 cells were harvested from 10 × 15 cm plates; endogenous in cells; host or cells: A375 melanoma cells
T3 sequence (Q8IUC4 whole entry): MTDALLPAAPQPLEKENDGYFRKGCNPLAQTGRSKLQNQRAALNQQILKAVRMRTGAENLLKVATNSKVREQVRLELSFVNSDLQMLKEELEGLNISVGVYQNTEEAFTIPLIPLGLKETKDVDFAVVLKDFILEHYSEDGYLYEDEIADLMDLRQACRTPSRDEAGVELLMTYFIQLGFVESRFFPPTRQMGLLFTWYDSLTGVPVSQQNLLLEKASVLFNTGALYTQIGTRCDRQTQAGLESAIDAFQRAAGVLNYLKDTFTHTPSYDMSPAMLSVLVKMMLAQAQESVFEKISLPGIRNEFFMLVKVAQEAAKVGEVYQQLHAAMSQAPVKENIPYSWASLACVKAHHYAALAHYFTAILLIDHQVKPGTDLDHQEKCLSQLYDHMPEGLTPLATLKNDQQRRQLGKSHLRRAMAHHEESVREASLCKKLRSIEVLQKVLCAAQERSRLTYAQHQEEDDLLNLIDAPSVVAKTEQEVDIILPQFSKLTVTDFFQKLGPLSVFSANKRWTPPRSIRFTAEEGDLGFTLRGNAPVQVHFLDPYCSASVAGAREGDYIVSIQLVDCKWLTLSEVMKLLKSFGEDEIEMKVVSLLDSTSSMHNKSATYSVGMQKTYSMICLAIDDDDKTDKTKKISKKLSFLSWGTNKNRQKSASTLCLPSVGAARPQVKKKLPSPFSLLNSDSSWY

PDE3A = PDE3A (Homo sapiens, UniProt Q14432); assay: Off-target profiling panel; type: biochemical
Chain of PDE3A (Q14432 whole entry): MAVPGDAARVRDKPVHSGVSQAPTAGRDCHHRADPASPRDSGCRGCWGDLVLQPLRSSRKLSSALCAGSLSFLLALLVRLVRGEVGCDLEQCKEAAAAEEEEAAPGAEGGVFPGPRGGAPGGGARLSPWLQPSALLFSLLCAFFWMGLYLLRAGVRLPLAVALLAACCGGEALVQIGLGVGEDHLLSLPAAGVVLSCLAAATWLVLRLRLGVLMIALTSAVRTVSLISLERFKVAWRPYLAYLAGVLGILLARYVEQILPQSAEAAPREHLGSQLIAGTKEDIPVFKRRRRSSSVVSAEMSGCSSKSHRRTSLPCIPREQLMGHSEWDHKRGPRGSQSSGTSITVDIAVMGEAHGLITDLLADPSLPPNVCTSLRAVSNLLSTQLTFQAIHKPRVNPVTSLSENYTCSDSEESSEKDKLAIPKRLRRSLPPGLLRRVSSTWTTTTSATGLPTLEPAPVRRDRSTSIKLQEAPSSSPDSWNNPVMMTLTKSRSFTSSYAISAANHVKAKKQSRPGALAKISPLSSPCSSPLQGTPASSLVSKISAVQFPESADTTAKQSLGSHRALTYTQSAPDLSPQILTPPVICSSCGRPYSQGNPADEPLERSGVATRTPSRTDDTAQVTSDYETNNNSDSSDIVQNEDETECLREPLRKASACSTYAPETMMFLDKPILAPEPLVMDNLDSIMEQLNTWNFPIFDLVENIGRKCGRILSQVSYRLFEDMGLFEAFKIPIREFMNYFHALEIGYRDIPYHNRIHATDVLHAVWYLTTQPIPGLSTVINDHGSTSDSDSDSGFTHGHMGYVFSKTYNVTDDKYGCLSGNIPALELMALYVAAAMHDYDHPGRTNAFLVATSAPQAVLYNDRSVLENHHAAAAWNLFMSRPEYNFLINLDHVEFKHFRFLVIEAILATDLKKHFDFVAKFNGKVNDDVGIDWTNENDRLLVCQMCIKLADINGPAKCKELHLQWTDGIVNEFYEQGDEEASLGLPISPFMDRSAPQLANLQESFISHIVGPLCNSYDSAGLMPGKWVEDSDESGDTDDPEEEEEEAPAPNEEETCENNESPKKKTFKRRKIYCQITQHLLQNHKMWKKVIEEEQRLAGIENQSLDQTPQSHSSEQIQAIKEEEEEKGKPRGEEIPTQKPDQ

purified human ALDH1A3 = target: T4, purified human ALDH1A3 (Homo sapiens, UniProt P47895); assay: Nanoscale differential scanning fluorimetry (DSF); type: binding; conditions: 10 and 100 μM
T4 construct: made in house; host or cells: BL21-DE3 E. coli

In the case of `CCc1cnccc1C(=O)Nc1cc2c(cc1F)NC(=O)CC2` [MBE1, 3-ethyl-N-(7-fluoro-2-oxo-3,4-dihydro-1H-quinolin-6-yl)pyridine-4-carboxamide], the inhibition at 10 µM (5HT1B) is reported as 5.26%, the “thermal stabilization of ALDH1A3 in TPP (in words)” value (ALDH1A3 [1]) is reported as “stabilized” and the “1uM MBE1 Tm” value (C19orf66) is reported as 53.8379. It also gave an inhibition at 10 µM (op-delta) of 5.54%, an inhibition at 10 µM (5HT3) of -18.6% and an inhibition at 10 µM (Eta agonist) of -0.16%. For the same molecule, the inhibition at 10 µM (COX2) was -1.05%, the “Inhibition by MBE1 at 10 μM (%)” value (GABAA) was −5.08% and the inhibition at 10 µM (LCK) was -2.81%. The inhibition at 10 µM (MAO-A) was -8.05%, the half-life (Plasma stability (human)) was > 4.82 h and the “Inhibition by MBE1 at 10 μM (%)” value (NMDA) was −13.59%. For the same molecule, the inhibition at 10 µM (5HT2B) was -6.81%, the inhibition at 10 µM (V1A) was 5.88% and the “stabilization of ALDH1A3 in CETSA (in words)” value (ALDH1A3 [2]) was “increased stability and solubility at high temperatures”. For the same molecule, the inhibition at 10 µM (Alpha2A) was -1.15%, the inhibition at 10 µM (hERG) was -28.1% and the “100nM MBE1 Tm” value (RHPN2) was 58.0062. For the same molecule, the “DMSO-100nM MBE1 TM” value (RHPN2) was -9.514, the inhibition at 10 µM (PDE3A; read-out: Inhibition by MBE1 at 10 μM (%)) was 75.8% and the “concentration for PDE3α interaction as multiple of IC50 against ALDH1A3” value (PDE3A; screen against 44 off-target proteins) was > 100 fold.

With `CCc1ccccc1C(=O)Nc1cc2c(cc1F)NC(=O)CC2` [MBE1.5, 2-ethyl-N-(7-fluoro-2-oxo-3,4-dihydro-1H-quinolin-6-yl)benzamide] the “thermal stabilization of purified ALDH1A3” value (purified human ALDH1A3) was > 8.5 °C.
